Data on 66 compounds can be found in US20100022559A1, “BISOXIMES AS FUNGICIDES” (BAYER CROPSCIENCE AG, priority 2006, published 2010).

Each structure is given as a SMILES string.

The nature of one data set: logP determination by HPLC on a reversed-phase column (C 18), EEC Directive 79/831 Annex V.A8. The format is physicochemical. Conditions: method marked [a] in Table 1. As for the experimental part:
The stated logP values were determined in accordance with EEC Directive 79/831 Annex V.A8 by HPLC (high performance liquid chromatography) on a reversed-phase column (C 18). Temperature: 43° C.
On to `Cc1cccnc1C(=NOCCCON=C(c1ccccc1)c1ncccc1C)c1ccccc1` [compound 657], for which the logP is 4.17^[a].
Still for that read-out and setting: the same measure for `CCC(=NOCC(C)CON=C(CC)c1cc(C)cc(C)n1)c1cc(C)cc(C)n1` (single isomer, unassigned) [compound 691]: 2.75^[a] (isomer A).

The same data set, now with this note: method marked [b] in Table 1.
For `CC(=NOCc1ccccc1CON=C(C)c1ccccn1)c1ccccn1` [Compound 725], the logP was 3.76^[b].
With `C=C(CON=Cc1cccc(C)n1)CON=Cc1cccc(C)n1` (single isomer, unassigned) [compound 664], the logP is 2.13^[b] (isomer A).
Still for that read-out and setting: the same measure for `C=C(CON=C(C)c1cccc(C)n1)CON=C(c1cccc(C)n1)C1CC1` (single isomer, unassigned) [compound 536]: 3.19^[b] (isomer A).
On to `CC(=NOCC(CON=C(C)c1nc(C)ccc1C)Cc1ccccc1)c1cccc(C)n1` (centres unmarked) [compound 591], for which the logP is 3.40^[b].
Take `CCCC(=NOCC1(CON=C(CCC)c2cccc(C)n2)CC(c2cccc(Cl)c2)=NO1)c1cccc(C)n1` (centres unmarked) [compound 624]: the logP is 6.58^[b].

Staying with this data set, now noted: method marked [c] in Table 1.
As to `CC(=NOCC(CON=C(C)c1nc(C)ccc1C)Cc1ccccc1)c1cccc(C)n1` (centres unmarked) [compound 591], the logP is 5.07^[c].
On the same count and under the same terms, the same measure for `CCCc1nc(C(C)=NOCC(C)CON=C(C)c2ccc(C)c(CCC)n2)ccc1C` (centres unmarked) [Compound 550]: 7.36^[c].

The data set is the same for the next values; noted with them: method marker [a] (footnote not shown); isomer A / isomer B / isomer mixture as noted in the cell.
As for `CC(=NOCCCON=C(C)c1cccc(Cc2ccccc2)n1)c1cccc(Cc2ccccc2)n1` [Compound 131], the logP was 6.95^[a].
Still for that read-out and setting: the same measure for `CC(=NOCCCON=C(C)c1ccnc(C)n1)c1ccnc(C)n1` [compound 161]: 3.06^[a].
In the case of `CC(=NOCC1(CON=C(C)c2cccc(C)n2)CO1)c1cccc(C)n1` (centres unmarked) [compound 220], the logP is 2.24^[a].
On the same count and under the same terms, the same measure for `CC(=NOCC(C)(O)CON=C(C)c1cccc(C)n1)c1cccc(C)n1` (centres unmarked) [Compound 12]: 1.66^[a]; for `CCC(=NOCC(C)CON=C(CC)c1ccc(C)c(C)n1)c1ccc(C)c(C)n1` (centres unmarked) [Compound 235]: 4.88^[a].
Same read-out and setting: the figure for `CCCC(=NOCC(C)CON=C(CCC)c1ncccc1C)c1ncccc1C` (mixture of isomers) [compound 111] is 4.73^[a]; for `C=C(CON=C(CC)c1cccc(C)n1)CON=C(CC)c1cccc(C)n1` [Compound 239] it is 5.16^[a].
On the same count and under the same terms, the same measure for `CC(=NOCC(O)CON=C(C)c1ccccn1)c1ccccn1` (centres unmarked) [compound 3]: 1.50^[a]; for `Cc1cccnc1C(Cc1ccccc1)=NOCCCON=C(Cc1ccccc1)c1ncccc1C` (single isomer, unassigned) [Compound 97]: 4.89^[a] (isomer A).
For `Cc1ccc(C(=NOCCCON=C(c2ccc(C)c(C)n2)C(C)C)C(C)C)nc1C` (mixture of isomers) [compound 238], the logP is 4.94^[a].
With `CC(=NOCCCON=C(C)c1ccc(C)nc1)c1ccc(C)nc1` [compound 228], the logP was 1.27^[a].
As for `Cc1cccc(C(=NOCCCON=C(c2cccc(C)n2)C2CC2)C2CC2)n1` (mixture of isomers) [Compound 167], the logP is 2.85^[a].

Still in this data set, the particulars now being: method marker [b]; isomer A / isomer B / isomer mixture as noted in the cell.
`C=C(CON=C(C)c1cccc(C)n1)CON=C(N)c1nc(C)c(C)c(C)n1` [compound 191]: the logP was 2.13^[b].
Still for that read-out and setting: the same measure for `Cc1nc(/C(N)=N/OCO/N=C(\N)c2nc(C)c3c(n2)CCCC3)nc2c1CCCC2` [compound 39]: 2.29^[b]; for `CC(=NOCCON=C(C)c1cnc(-c2ccccc2)s1)c1cnc(-c2ccccc2)s1` [compound 48]: 6.51^[b].
The same measure, in the same setting: the figure for `CC(=NOCC1(CON=C(C)c2cccc(C)n2)CC1)c1cccc(C)n1` [Compound 15] is 3.44^[b]; for `CC(=NOCCOCCON=C(C)c1cccc(C)n1)c1cccc(C)n1` [Compound 181] it is 1.84^[b]; for `C/C(=N\OCCOCOCCO/N=C(\C)c1cccc(C)n1)c1cccc(C)n1` [Compound 216] it is 2.02^[b].
The same measure, in the same setting: the same measure for `C=C(CON=C(C)c1cc(C)cc(C)n1)CON=C(C)c1cc(C)cc(C)n1` [Compound 219]: 1.98^[b].
As to `Cc1cc(C)nc(/C(N)=N/OCCCCO/N=C(\N)c2nc(C)cc(C)n2)n1` [compound 4], the logP was 1.73^[b].
Still for that read-out and setting: the same measure for `C=C(CON=C(C)c1c(C)noc1C)CON=C(C)c1c(C)noc1C` [compound 25]: 3,57^[b].
The same measure, in the same setting: the figure for `COc1ccc(C)nc1C(C)=NOCC(C)CON=C(C)c1nc(C)ccc1OC` (centres unmarked) [Compound 251] is 2.04^[b].
Still for that read-out and setting: the figure for `C=C(CON=C(C)c1cccc(C)n1)CON=C(C)c1ccc2ccccc2n1` [Compound 202] is 5.25^[b]; for `C=C(CON=C(C)c1cccc(C)c1)CON=C(C)c1cccc(C)n1` [compound 205] it is 5.03^[b].
Take `C=C(CON=C(C)c1cccc(C)n1)CON=C(N)c1cc(C(F)(F)F)cc(C)n1` [compound 210]: the logP was 4.37^[b].
Still for that read-out and setting: the same measure for `CC(=NOCON=C(C)c1cccc(C)n1)c1cccc(C)n1` [compound 7]: 2.39^[b]; for `CC(=NOCCCCCCCON=C(C)c1cccc(C)n1)c1cccc(C)n1` [Compound 217]: 5.37^[b].
The same measure, in the same setting: the figure for `C=C(CO/N=C(\N)c1nc(C2CC2)cc(C2CC2)n1)CO/N=C(\N)c1nc(C2CC2)cc(C2CC2)n1` [compound 47] is 3.33^[b].
Still for that read-out and setting: the same measure for `C=C(CON=C(C)c1cccc(C)n1)CON=C(N)c1ncc(F)cc1F` [compound 242]: 2.48^[b).
With `CC(=NOCCON=C(C)c1cc(C)ccn1)c1cc(C)ccn1` [compound 34], the logP was 1.71^[b].

Still in this data set, the particulars now being: value marked [a].
In the case of `CC(=NOCC(C)CON=C(C)c1cccc(C2CC2)n1)c1cccc(C2CC2)n1` (centres unmarked) [compound 815], the logP is 7.36^[a].
On the same count and under the same terms, the figure for `CC(=NOCC(C)CON=C(C)c1cc(Cl)cc(C)n1)c1cccc(C)n1` (centres unmarked) [compound 877] is 6.58^[a]; for `CC(=NOCC(C)CON=C(C)c1ccc2c(n1)CCC2)c1ccc2c(n1)CCC2` (centres unmarked) [Compound 300] it is 4.14^[a].
As to `CCCC(=NOCCCON=C(CCC)c1ccc(C)c(C)n1)c1ccc(C)c(C)n1` (mixture of isomers) [Compound 260], the logP was 5.22^[a].
The same measure, in the same setting: the figure for `CC(=NOCCCON=C(C)c1cc(C)n(C)n1)c1cc(C)n(C)n1` [compound 259] is 2.70^[a]; for `C=C(CON=C(c1cccc(C)n1)C(C)C)CON=C(c1cccc(C)n1)C(C)C` (single isomer, unassigned) [compound 275] it is 4.90^[a] (isomer A); for `CC(=NOCC(C)CON=C(C)c1cc(Cl)cc(C)n1)c1cc(C)cc(C)n1` (racemic) [compound 878] it is 5,69^[a].
Still for that read-out and setting: the figure for `C=C(CON=C(C)c1cccc(C)n1)CON=C(C#N)c1ccc(C)c(C)n1` [Compound 821] is 3.74^[a].
In the case of `C#Cc1cc(C)nc(C(C)=NOCC(C)CON=C(C)c2cc(C#C)cc(C)n2)c1` (centres unmarked) [compound 873], the logP was 6.65^[a].
Take `CCOC(=O)c1cccc(C(C)=NOCC(C)CON=C(C)c2cccc(C(=O)OCC)n2)n1` (centres unmarked) [compound 258]: the logP is 5.03^[a].
Consider `CC(=NOCC(C)(C)CON=C(C)c1cc(C2CC2)cc(C)n1)c1cccc(C)n1` [Compound 818], for which the logP was 3.80^[a].

The same data set, now with this note: value marked [b].
With `CC(=NOCC(C)CON=C(C)c1nc(C)ccc1C)c1nc(C)ccc1C` (single isomer, unassigned) [compound 268], the logP was 2.08^[b] (isomer A).
Turning to `C=C(CON=C(C)c1ccccn1)CON=C(C)c1cccc(C)n1` (single isomer, unassigned) [compound 400], the logP was 3.15^[b] (isomer B).
On to `CCCC(=NOCCCCON=C(C)c1cccc(C)n1)c1ncccc1C` (single isomer, unassigned) [Compound 327], for which the logP is 3.61^[b] (isomer A).
The same measure, in the same setting: the figure for `C=C(CON=C(CC)c1cccc(CC)n1)CON=C(CC)c1cccc(CC)n1` [Compound 265] is 7.08^[b].
As to `CC(=NOCC(C)CON=C(C)c1cccc(C)n1)c1cnccn1` (centres unmarked) [compound 507], the logP is 3.28^[b].
On the same count and under the same terms, the same measure for `CC(=NOCC(C)CON=C(C)c1cccc(C)n1)c1ccnc(C)c1` (centres unmarked) [compound 432]: 1.80^[b]; for `C=C(CON=C(C)c1cccc(C)n1)CON=C(CC)c1cccc(C)n1` [compound 358]: 4.30^[b].
On the same count and under the same terms, the figure for `CC(=NOCCCCCCON=C(C)c1cccc2ccccc12)c1cccc(C)n1` [compound 395] is 6.16^[b].
For `CC(=NOCC(C)CON=C(C)c1cc(Cl)cc(C)n1)c1cccc(C)n1` (centres unmarked) [compound 877], the logP is 6.58^[b].
Same read-out and setting: the same measure for `CC(=NOCCCCCCON=C(C)c1cccnc1C)c1cccc(C)n1` [compound 461]: 2.27^[b]; for `CC(=NOCCCCCCON=C(C)c1nc(C)c(C)s1)c1cccc(C)n1` (single isomer, unassigned) [compound 389]: 5.84^[b] (isomer A).
Still for that read-out and setting: the figure for `COc1cc(C)nc(C(C)=NOCCCCON=C(C)c2cccc(C)n2)c1` [compound 449] is 3.11^[b].
On to `CC(=NOCCCCCCON=C(C)c1cccc(C)n1)c1ccccc1` [compound 397], for which the logP is 5.78^[b].
For the compound `CC(=NOCC(C)CON=C(C)c1nccc(C)n1)c1cccc(C)n1` (centres unmarked) [compound 506], the logP was 2.59^[b].
Still for that read-out and setting: the same measure for `CC(=NOCC(C)CON=C(C)c1cc(Cl)cc(C)n1)c1cc(C)cc(C)n1` (racemic) [compound 878]: 5.69^[b]; for `C#Cc1cc(C)nc(C(C)=NOCC(C)CON=C(C)c2cc(C#C)cc(C)n2)c1` (centres unmarked) [compound 873]: 6.65^[b].
Still for that read-out and setting: the same measure for `CC(=NOCCCCCCON=C(C)c1ccc(Cl)s1)c1cccc(C)n1` [compound 459]: 6.16^[b]; for `CC(=NOCC(C)CON=C(C)c1cccc(C)n1)c1ccc(Cl)cc1` (centres unmarked) [compound 496]: 5.78^[b].
On the same count and under the same terms, the figure for `COc1cccc(C(C)=NOCC(C)(C)CON=C(C)c2cccc(C)n2)c1` [compound 484] is 5.31^[b]; for `CC(=NOCC(C)(C)CON=C(c1ccccc1)c1ncccc1C)c1cccc(C)n1` [compound 365] it is 4.51^[b].

The same data set, now with this note: value marked [c].
On to `CC(=NOCC(C)CON=C(C)c1cc(Cl)cc(C)n1)c1cccc(C)n1` (centres unmarked) [compound 877], for which the logP was 7.36^[c].
Still for that read-out and setting: the figure for `CC(=NOCC(C)CON=C(C)c1cc(Cl)cc(C)n1)c1cc(C)cc(C)n1` (racemic) [compound 878] is 7.32^[c].
For the compound `C#Cc1cc(C)nc(C(C)=NOCC(C)CON=C(C)c2cc(C#C)cc(C)n2)c1` (centres unmarked) [compound 873], the logP is 6.61^[c].
On the same count and under the same terms, the figure for `CC(=NOCC(C)(C)CON=C(C)c1cc(C2CC2)cc(C)n1)c1cccc(C)n1` [Compound 818] is 6.57^[c].
